Results: PubChem BioAssay (NCI)
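Five concentrations, 48 hours, 96-well plates. GI50 is the concentration that inhibits growth by half. The concentration for full growth arrest is given as TGI.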

Experiments:
Experiment in all cases: inhibition of tumour cell growth, NCI panel, 48 h
[1] = system: SNB-19 CNS
[2] = system: SK-MEL-2 melanoma
[3] = system: SF-295 CNS
[4] = system: OVCAR-4 ovarian
[5] = system: RPMI-8226 leukemia
[6] = system: NCI-H23 lung
[7] = system: EKVX NSCLC
[8] = system: K-562 leukemia
[9] = system: SF-268 CNS
[10] = system: SNB-75 CNS
[11] = system: 786-0 renal
[12] = system: OVCAR-5 ovarian
[13] = system: HCT-15 colon
[14] = system: SK-MEL-5 melanoma
[15] = system: HS 578T breast
[16] = system: NCI/ADR-RES ovarian
[17] = system: SK-OV-3 ovarian
[18] = system: HCT-116 colon
[19] = system: CAKI-1 renal
[20] = system: OVCAR-3 ovarian
[21] = system: DU-145 prostate
[22] = system: NCI-H226 lung
[23] = system: HCC-2998 colon
[24] = system: HT29 colon
[25] = system: HOP-92 NSCLC
[26] = system: HOP-62 NSCLC
[27] = system: RXF 393 renal
[28] = system: T-47D breast
[29] = system: COLO 205 colon
[30] = system: NCI-H522 lung
[31] = system: HL-60(TB) leukemia
[32] = system: MDA-MB-231 breast
[33] = system: U251 CNS
[34] = system: MOLT-4 leukemia
[35] = system: SW-620 colon
[36] = system: OVCAR-8 ovarian
[37] = system: MALME-3M melanoma
[38] = system: PC-3 prostate
[39] = system: CCRF-CEM leukemia
[40] = system: BT-549 breast
[41] = system: A549 NSCLC
[42] = system: UACC-62 melanoma
[43] = system: A498 renal
[44] = system: NCI-H460 lung
[45] = system: M14 melanoma
[46] = system: TK-10 renal
[47] = system: UACC-257 melanoma
[48] = system: IGROV1 ovarian
[49] = system: SN12C renal
[50] = system: LOX IMVI melanoma
[51] = system: KM12 colon
[52] = system: MDA-MB-435
[53] = system: MCF7 breast
[54] = system: SK-MEL-28 melanoma
[55] = system: SF-539 CNS
[56] = system: ACHN renal
[57] = system: UO-31 renal

Work on `COc1cc2c(cc1OCCCCCN1CCN(c3cc(=O)oc4ccccc34)CC1)N=C[C@@H]1CCCN1C2=O` yielded a GI50 [1] of 294 nM, a TGI [1] of 12.5 µM and a GI50 [2] of 198 nM. The TGI [2] was 533 nM, the GI50 [3] was 331 nM and the TGI [3] was 3.16 µM. The GI50 [4] was 358 nM, the TGI [4] was 1710 nM and the GI50 [5] was < 39 nM. The TGI [5] was 285 nM, the GI50 [6] was 262 nM and the TGI [6] was 1100 nM. The GI50 [7] was 848 nM, the TGI [7] was 4.65 µM and the GI50 [8] was < 41.1 nM. For the same compound, the TGI [8] was 3.06 µM, the TGI [9] was 2470 nM and the TGI [10] was 343 nM. The GI50 [11] was 147 nM, the TGI [11] was 468 nM and the GI50 [12] was 407 nM. The TGI [12] was 18.6 µM, the GI50 [13] was 1020 nM and the TGI [13] was 7.27 µM. The GI50 [14] was 206 nM, the TGI [14] was 481 nM and the GI50 [15] was 201 nM. The TGI [15] was 1840 nM, the GI50 [16] was 1910 nM and the TGI [16] was > 22 µM. For the same compound, the GI50 [17] was 821 nM, the TGI [17] was > 41.3 µM and the GI50 [18] was 88.9 nM. For the same compound, the TGI [18] was 336 nM, the GI50 [19] was 556 nM and the TGI [19] was 1860 nM. It also gave a GI50 [20] of 263 nM, a TGI [20] of 653 nM and a GI50 [21] of 221 nM. For the same compound, the TGI [21] was 3.55 µM, the GI50 [22] was 184 nM and the TGI [22] was 485 nM. The GI50 [23] was 176 nM, the TGI [23] was 398 nM and the GI50 [24] was 84.1 nM. It also gave a TGI [24] of 610 nM, a TGI [25] of 178 nM and a GI50 [26] of 151 nM. The TGI [26] was 438 nM, the GI50 [27] was 62.9 nM and the TGI [27] was 253 nM. For the same compound, the TGI [28] was 2280 nM, the GI50 [29] was 42.2 nM and the TGI [29] was 280 nM. For the same compound, the GI50 [30] was < 42.8 nM, the TGI [30] was 170 nM and the GI50 [31] was < 45.3 nM. For the same compound, the TGI [31] was 1120 nM, the GI50 [32] was 27.7 nM and the TGI [32] was 730 nM. The GI50 [33] was 63.3 nM, the TGI [33] was 2320 nM and the GI50 [34] was 11.7 nM. It also gave a TGI [34] of 1410 nM, a GI50 [35] of 242 nM and a TGI [35] of 6.66 µM. It also gave a GI50 [36] of 293 nM, a TGI [36] of 19.9 µM and a GI50 [37] of 219 nM. It also gave a TGI [37] of 536 nM, a GI50 [38] of 91.8 nM and a TGI [38] of 2340 nM. It also gave a GI50 [39] of 124 nM, a TGI [39] of 364 nM and a GI50 [40] of 158 nM. The TGI [40] was 778 nM, the GI50 [41] was 2560 nM and the TGI [41] was 11.5 µM. The GI50 [42] was 186 nM, the TGI [42] was 383 nM and the GI50 [43] was 220 nM. The TGI [43] was 488 nM, the GI50 [44] was 131 nM and the TGI [44] was 9.99 µM. The GI50 [45] was 96.5 nM, the TGI [45] was 338 nM and the GI50 [46] was 175 nM. For the same compound, the TGI [46] was 13 µM, the GI50 [47] was 1590 nM and the TGI [47] was 5.69 µM. It also gave a GI50 [48] of 83 nM, a TGI [48] of 401 nM and a GI50 [49] of 182 nM. For the same compound, the TGI [49] was 664 nM, the GI50 [50] was < 38.7 nM and the TGI [50] was 450 nM. It also gave a GI50 [51] of 268 nM, a TGI [51] of 1380 nM and a GI50 [52] of 183 nM. For the same compound, the TGI [52] was 425 nM, the GI50 [53] was 93 nM and the TGI [53] was 4.95 µM. The GI50 [54] was 437 nM, the TGI [54] was 1340 nM and the GI50 [55] was 232 nM. For the same compound, the TGI [55] was 907 nM, the GI50 [56] was 461 nM and the TGI [56] was 2550 nM. It also gave a GI50 [57] of 690 nM and a TGI [57] of 11.4 µM.
